This is an account of results in ChEMBL document CHEMBL1201862, “PubChem BioAssay data set” (2004).

A short description of experiment [1]: NIH3T3 cell viability loss – ATP luminescence, mouse fibroblasts, counter-screen, dose response (AID 2010).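 Further: cells exposed to compound for about 90 hours before reading.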 It counts as functional, cell-based.
A short description of experiment [2]: Trypanosoma cruzi growth suppression in host cells – NIH3T3 host cells, beta-gal luminescence, confirmation (AID 2044).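 Further: intracellular parasites grown in NIH/3T3 mouse fibroblasts as host cells; luminescent beta-galactosidase reporter signal from transgenic T. cruzi replicating inside host cells; inhibitors lower the luminescence signal.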 It counts as functional, cell-based.
Experiment [3] deals with Cytochrome P450 2C9 (Homo sapiens, UniProt P11712).
Chain of Cytochrome P450 2C9 (P11712 whole entry): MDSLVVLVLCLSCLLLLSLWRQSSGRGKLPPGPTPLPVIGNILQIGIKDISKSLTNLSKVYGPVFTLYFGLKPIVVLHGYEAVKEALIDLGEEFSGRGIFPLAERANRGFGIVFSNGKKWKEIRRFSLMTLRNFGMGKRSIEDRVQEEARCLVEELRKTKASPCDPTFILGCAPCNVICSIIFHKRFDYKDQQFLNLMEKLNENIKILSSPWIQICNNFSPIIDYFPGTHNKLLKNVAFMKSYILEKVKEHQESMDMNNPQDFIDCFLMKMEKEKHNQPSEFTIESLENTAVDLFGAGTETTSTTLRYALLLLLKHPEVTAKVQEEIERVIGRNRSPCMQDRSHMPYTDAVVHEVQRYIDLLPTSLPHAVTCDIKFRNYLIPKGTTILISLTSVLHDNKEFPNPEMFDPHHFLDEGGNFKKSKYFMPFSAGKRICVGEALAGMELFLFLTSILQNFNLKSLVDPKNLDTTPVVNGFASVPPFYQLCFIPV
Experiment [4] deals with Cytochrome P450 3A4 (Homo sapiens, UniProt P08684).
Chain of Cytochrome P450 3A4 (P08684 whole entry): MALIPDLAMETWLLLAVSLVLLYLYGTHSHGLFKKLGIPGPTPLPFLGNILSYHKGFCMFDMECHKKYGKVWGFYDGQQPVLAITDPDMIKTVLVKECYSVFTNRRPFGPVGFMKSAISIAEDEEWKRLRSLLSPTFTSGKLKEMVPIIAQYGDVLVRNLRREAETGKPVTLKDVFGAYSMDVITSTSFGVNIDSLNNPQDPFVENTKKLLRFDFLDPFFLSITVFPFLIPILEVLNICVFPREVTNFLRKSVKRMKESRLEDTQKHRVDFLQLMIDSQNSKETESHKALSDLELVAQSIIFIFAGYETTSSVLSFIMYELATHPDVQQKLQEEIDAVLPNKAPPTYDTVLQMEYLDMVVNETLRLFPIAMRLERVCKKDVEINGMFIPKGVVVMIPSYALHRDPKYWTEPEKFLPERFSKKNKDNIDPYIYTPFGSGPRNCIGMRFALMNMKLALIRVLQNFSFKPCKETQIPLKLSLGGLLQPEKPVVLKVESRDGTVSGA
Experiment [5] has as its target T1, Cytochrome P450 1A2 (Homo sapiens, UniProt P05177).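 Further: PubChem cytochrome P450 panel assay, CYP1A2 panel member.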
T1 sequence (P05177 whole entry): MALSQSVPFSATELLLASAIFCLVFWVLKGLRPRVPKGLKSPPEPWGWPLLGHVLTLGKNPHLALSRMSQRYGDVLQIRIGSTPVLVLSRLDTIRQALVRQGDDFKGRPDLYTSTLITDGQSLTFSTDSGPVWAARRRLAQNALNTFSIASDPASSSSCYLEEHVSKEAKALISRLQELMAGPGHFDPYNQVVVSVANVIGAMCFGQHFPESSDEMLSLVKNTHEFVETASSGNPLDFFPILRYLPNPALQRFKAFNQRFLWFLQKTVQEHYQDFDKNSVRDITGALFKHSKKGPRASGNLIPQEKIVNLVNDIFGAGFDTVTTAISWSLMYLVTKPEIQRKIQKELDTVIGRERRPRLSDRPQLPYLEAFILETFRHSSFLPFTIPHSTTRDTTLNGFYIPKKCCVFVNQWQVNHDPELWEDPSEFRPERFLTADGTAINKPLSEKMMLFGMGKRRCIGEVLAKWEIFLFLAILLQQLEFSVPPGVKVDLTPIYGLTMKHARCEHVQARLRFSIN

In experiment [6] the test system is Streptococcus sp. 'group A'. The experiment can be described thus: Streptococcus pyogenes SK(-)GAS viability under kanamycin – luminescence, BacTiterGlo, confirmation, counter-screen for streptokinase expression inhibitor project, dose response (AID 1900). The format is functional, organism-based. A general note: Counterscreens check selectivity or assay interference.

Experiment [7] relates to Streptococcus. The experiment can be described thus: GAS UMAA2166 growth inhibition – luminescence, BacTiterGlo, counter-screen for streptokinase expression inhibitor project, dose response (AID 1915).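 Further: potency for reduction of bacterial viability or growth.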 It counts as functional, organism-based.

Calls of active or inactive are those of the source. For most assays here, no stated cut-off is given here; in the data, actives have a measured EC50 and inactives only a lower limit.

By EC50 is commonly meant the midpoint of the concentration-response curve. In the case of `CCCCNc1c(-c2ccc(SC3CCCCC3)c(OC)c2)nc2ccc(Cl)cn12`, the EC50 in experiment [1] was > 60 µM (not active); in experiment [2], 1.43 µM (active). Broadly, the AC50 is the midpoint of the concentration-response curve, whichever way the signal moves. As to `Cc1nc2cnc(N(C)C)nc2n(C2CC2)c1=O`, the AC50 in experiment [3] is 15.8 µM (inconclusive).

Consider `Cc1ccc2c(c1)N(CCC(=O)NCc1ccc3c(c1)OCO3)C(=O)CO2`, for which, in experiment [3], the AC50 was 0.00562 µM (inconclusive). On to `C/C(=C\c1ccc(Cl)cc1)C(C)(C)C(=O)O`, for which the AC50 in experiment [3] was 3.16 µM (inconclusive). Regarding `Cc1ccc(NC(=S)N(CCCN2CCOCC2)Cc2cccnc2)cc1C`, the EC50 is 10.9 µM (active) in experiment [1] and 1.19 µM (active) in experiment [2]. For `CSc1nsc(SC)c1NC(=O)Nc1ccccn1`, the AC50 in experiment [3] is 22.4 µM (inconclusive). Take `COc1ccc(NC(=O)N2CC[C@@]3(CCCN(C(=O)c4csnn4)C3)C2)cc1`: the concentration at half-maximal activity (AC50) in experiment [4] is 31.6 µM (inconclusive). As for `COC(=O)C/C=C\[C@@H](C)[C@@H](/C=N\OCC[C@H]1C=C[C@H](OC(C)=O)[C@@H](COC(C)=O)O1)NS(=O)(=O)c1ccc(C)cc1`, the AC50 in experiment [3] is 5.01 µM (inconclusive).

Turning to `Cc1ccc(CN2CC34C=CC(O3)C(C(=O)NCc3ccco3)C4C2=O)cc1` (configuration not stated), in experiment [5], the AC50 is 20 µM (inconclusive). Take `c1ccc2c(NC3C4CC5CC(C4)CC3C5)nc(N3CCOCC3)nc2c1` (configuration not stated): the EC50 in experiment [1] is > 30 µM (not active); in experiment [2] it was 1.39 µM (active). `CCc1ccc(NC(=O)CSc2nc3cc(C(=O)OC)ccc3c(=O)n2Cc2ccco2)cc1`: the AC50 in experiment [3] was 28.2 µM (inconclusive); in experiment [4] it was 3.98 µM (inconclusive). Regarding `COc1ccc(CC(=O)Nc2nc(-c3ccncc3)cs2)cc1`, the EC50 was > 60 µM (not active) in experiment [1] and 2.74 µM (active) in experiment [2]. On to `O=C(Nc1ccccc1)c1ccccc1CC[N+](=O)[O-]`, for which the AC50 in experiment [4] is 7.94 µM (inconclusive). In the case of `N#CCCn1c(=O)c(-c2cc(F)cc(F)c2)nc2cnc(N3CCOCC3)nc21`, the AC50 was 20 µM (inconclusive) in experiment [4] and 3.16 µM (inconclusive) in experiment [5].

Take `Cc1nn(Cc2cccc(Oc3ccccc3)c2)c(C)c1NC(=O)NC12CC3CC(CC(C3)C1)C2`: the EC50 in experiment [1] was > 60 µM (not active); in experiment [2], 1.29 µM (active). In the case of `Cc1ccc(S(=O)(=O)Nc2ccccc2C(=O)c2ccc(C)c(C)c2)cc1`, the AC50 in experiment [5] is 0.631 µM (inconclusive). In the case of `O=C(c1ccncc1)N1CCC2(CC1)CCN(c1ncccn1)CC2`, the AC50 in experiment [5] is 20 µM (inconclusive).

On to `CC(C)c1ccc2oc(-c3cc(N)ccc3O)nc2c1`, for which the EC50 in experiment [1] was 10.8 µM (active); in experiment [2] it was 2.88 µM (active). Regarding `CCOC(=O)c1nn(-c2ccccc2)c(-c2ccccc2)c1C(=O)c1ccccc1`, the AC50 in experiment [4] is 15.8 µM (inconclusive). Same read-out and setting: then `COc1ccc(O[C@H]2C=C[C@@H](c3ccccc3)O[C@@H]2CON=C(C)C)cc1`, with 3.98 µM (inconclusive). With `C[C@@H](C(=O)NCCF)[C@H]1C[C@]1(C)[C@H](NC(=O)OCc1ccccc1)c1ccccc1`, the AC50 in experiment [3] is 25.1 µM (inconclusive); in experiment [5] it was 15.8 µM (inconclusive). Consider `CCOC(=O)c1cc2c(ccn2C)n1CC(=O)N1CCCC(C)C1` (configuration not stated), for which the AC50 in experiment [5] is 20 µM (inconclusive). Regarding `CC(=O)OC[C@H]1O[C@@H](O/N=C(\C)CCN2CCc3nc(-c4ccccc4)c(-c4ccccc4)cc3C2)[C@H](OC(C)=O)[C@@H](OC(C)=O)[C@H]1OC(C)=O`, in experiment [4], the AC50 was 5.01 µM (inconclusive).

With `Cc1cccc(NC(=O)Cn2cccc2)c1`, the AC50 in experiment [4] was 22.4 µM (inconclusive). Turning to `Cc1cc(C)n2nc(-c3ccsc3-n3c(C)ccc3C)cc2n1`, the EC50 was > 60 µM (not active) in experiment [1] and 2.77 µM (active) in experiment [2]. Consider `Cc1cc(C)cc(Nc2c([N+](=O)[O-])nn(-c3ccc4c(c3)OCCO4)[n+]2[O-])c1`, for which the EC50 in experiment [1] was > 60 µM (not active); in experiment [2], 0.16 µM (active). Regarding `Cc1ccc(S(=O)(=O)N[C@H]2COC(=O)[C@H](C)COC(=O)[C@H](C)NC(=O)C/C=C\[C@H]2C)cc1`, the AC50 in experiment [4] is 3.98 µM (inconclusive). As to `COc1ccc(/C=C/C(=O)Nc2cc(C)nn2-c2nc3ccccc3[nH]2)cc1`, the EC50 in experiment [1] is 9.28 µM (active); in experiment [2], 1.71 µM (active). As for `OC(COc1ccc(OCc2ccccc2)cc1)CN1CCCCC1` (configuration not stated), the EC50 in experiment [1] was > 60 µM (not active); in experiment [2], 21.4 µM (active). Turning to `O=[N+]([O-])c1ccc(S(=O)(=O)Nc2ccc(-c3ccc(N4CCCC4)nn3)cc2)cc1`, the values for the EC50 in experiment [1] and in experiment [2] were > 60 µM (not active) and 0.159 µM (active), respectively. In the case of `COC(=O)C[C@@H]1O[C@H]1[C@H](C)[C@@H](OC)C(C)C`, the AC50 in experiment [3] is 3.16 µM (inconclusive). Regarding `CN(C)C(=O)c1ccc(-c2cc(N(C)Cc3ccco3)ncn2)cc1`, in experiment [5], the AC50 was 25.1 µM (inconclusive).

As for `CCOc1ccc(CN2CCN(Cc3cnc(-c4ccccc4)s3)CC2CCO)cc1` (configuration not stated), the EC50 was > 60 µM (not active) in experiment [1] and 0.201 µM (active) in experiment [2]. In the case of `COc1ccc(-c2nc3cnc(N4CCN(C)CC4)nc3n(-c3ccc(OC)cc3)c2=O)cc1`, the AC50 in experiment [3] is 39.8 µM (inconclusive); in experiment [5] it was 15.8 µM (inconclusive). As to `COc1ncc2nc(-c3cc(F)cc(F)c3)c(=O)n(-c3ccccc3)c2n1`, the AC50 in experiment [5] was 1.26 µM (inconclusive). `O=c1c(-c2cc(F)cc(F)c2)nc2cnc(N3CCOCC3)nc2n1C1CC1`: the AC50 in experiment [5] is 1 µM (inconclusive).

Take `CC(=O)N1CCC[C@@]2(CCN(c3ccccc3)C2)C1`: the AC50 in experiment [4] was 25.1 µM (inconclusive).

For `Cc1ccc(Cn2nnc3c(O)nc(C4CCN(S(=O)(=O)c5cc(C)ccc5C)CC4)nc32)cc1`, the EC50 in experiment [6] was 9.94 µM (active); in experiment [7], 96 µM (active). In the case of `CCOc1ccc(C(F)(F)F)cc1NC(C)=O`, in experiment [3], the half-maximal activity concentration (AC50) is 31.6 µM (inconclusive). On to `O=c1ccn([C@@H]2O[C@@H](COP(=O)(O)OP(=O)(O)O)[C@H](O)[C@@H]2O)c(=O)[nH]1`, for which the AC50 in experiment [4] is 0.794 µM (inconclusive).

As for `COCCCNCCCOc1ccc(C(C)(C)c2ccccc2)cc1`, the figures for the EC50 in experiment [1] and in experiment [2] were > 60 µM (inconclusive) and 0.567 µM (active), respectively. The like results for `CC(=O)N(CCCN(C)C)CCC(C)CCC=C(C)C` (configuration not stated) were, in that order, > 60 µM (not active) and 0.324 µM (active). On to `COc1ccc(-c2cc3ncnc(O)c3s2)cc1`, for which the EC50 in experiment [6] was 3.63 µM (active); in experiment [7], 17.8 µM (active). Consider `O=C(NNC(=O)c1ccccc1)C(=O)N1CCCCC1`, for which the AC50 in experiment [3] is 0.00562 µM (inconclusive). For the compound `CN(c1ccc(C(=O)NC2CC3CCC2C3)cc1)S(C)(=O)=O` (configuration not stated), the AC50 in experiment [4] was 15.8 µM (inconclusive). Take `COc1cc(/C=N/Nc2nc3ccccc3s2)cc([N+](=O)[O-])c1O`: the EC50 in experiment [6] was 9.74 µM (active); in experiment [7], > 150 µM (not active). As to `C/C(N)=C(/C#N)C(=O)CSc1nc(-c2ccccc2)c(-c2ccccc2)o1`, the EC50 in experiment [1] was > 60 µM (not active); in experiment [2], 1.43 µM (active).

For the compound `C/C(Cn1cnc([N+](=O)[O-])n1)=N\NC(=O)c1ccccc1O`, the results for the EC50 in experiment [1] and in experiment [2] were > 60 µM (not active) and 1.73 µM (active), respectively. Turning to `Cc1ccccc1OCC(=O)N/N=C1\CCOc2c(C)cccc21`, in experiment [4], the AC50 is 3.16 µM (inconclusive).
